Laboratory results: the supplement of paper PMC11208160

Assay: recombinant UMI read abundance after kanamycin selection (control-corrected) (log10(CPM+1)); higher = more efficient recombination; extreme values may be limits of the assay; sequences stand for … in AGTGCAGAGAAAATCGGCCAGTTTTCTCTGCCTGCAGTCCGCATGCCGTGGGACCCCTTGGGTTCTAACCTGTTGCCTAGATTTATGCAGCGGACTGCCTTTCTCCCAAAGTGATAAACCGG…AGGTTGGTTTCACT; site = the 11-nt donor
Outline: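 Values, expressed as log10(CPM+1), derive from recombinant UMI counts converted to CPM, averaged across replicates and scaled by control-derived factors. Plating was with IPTG (0.07 mM) plus kanamycin or unselected, two replicates each. The screen pooled donor and donor-binding-loop pairs for the IS621 bridge recombinase in Escherichia coli.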
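Note: IS621 bridge recombinase in Escherichia coli cells against a fixed T5 target plasmid.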

| Sequence | recombinant UMI read abundance (log10) |
| --- | --- |
| AGAGGACCATGGACCGGTTTTCCCGGTAATCCGTATTTGGG (site GGAGGACCTCC) | 0.0142 |
| AGAGGACCATGGACCGGTTTTCCCGGTAATCCGTATTTGGG (site TGAGGACCTCC) | 0.0116 |
| AGAGTATCATGGACCGGTTTTCCCGGTAATCCGTATTTGTG (site AGAGTATCTCA) | 2.98 |
| AGATAATCATGGACCGGTTTTCCCGGTAATCCGTATTTGTC (site AGATAATCTGA) | 2.16 |
| AGATAGGCATGGACCGGTTTTCCCGGTAATCCGTATTTGCA (site AGATAGGCTTG) | 2.72 |
| AGATCATCATGGACCGGTTTTCCCGGTAATCCGTATTTGTT (site AGATCATCTAA) | 0.929 |
| AGATCATCATGGACCGGTTTTCCCGGTAATCCGTATTTGTT (site CGATCATCTAG) | 0 |
| AGATCCGCATGGACCGGTTTTCCCGGTAATCCGTATTTGGT (site AGATCCGCTAC) | 0.811 |
| AGATGGCCATGGACCGGTTTTCCCGGTAATCCGTATTTGTG (site AGATGGCCTCA) | 0.0259 |
| AGATTATCATGGACCGGTTTTCCCGGTAATCCGTATTTGCA (site ACAGTATCTTG) | 2.54 |
| AGATTATCATGGACCGGTTTTCCCGGTAATCCGTATTTGCA (site AGATTATCTTG) | 2.9 |
| AGATTCGCATGGACCGGTTTTCCCGGTAATCCGTATTTGGA (site AGATTCGCTTC) | 1.89 |
| AGATTTACATGGACCGGTTTTCCCGGTAATCCGTATTTGGA (site AGATTTACTTC) | 0.959 |
| AGCAAAACATGGACCGGTTTTCCCGGTAATCCGTATTTGCA (site AGCAAAACTTG) | 0.735 |
| AGCAAGGCATGGACCGGTTTTCCCGGTAATCCGTATTTGCA (site AGCAAGGCTTG) | 2.5 |
| AGCAAGGCATGGACCGGTTTTCCCGGTAATCCGTATTTGCA (site AGGAAGACTTG) | 0.0151 |
| AGCACAGCATGGACCGGTTTTCCCGGTAATCCGTATTTGAC (site AGCACAGCTGT) | 2.8 |
| AGCACAGCATGGACCGGTTTTCCCGGTAATCCGTATTTGGG (site AGCACAGCTCC) | 0.0126 |
| AGCACAGCATGGACCGGTTTTCCCGGTAATCCGTATTTGGG (site AGCCCAGCTCC) | 0.00716 |
| AGCACAGCATGGACCGGTTTTCCCGGTAATCCGTATTTGGG (site AGCGCAGCTCC) | 0.0219 |
| AGCACAGCATGGACCGGTTTTCCCGGTAATCCGTATTTGGG (site AGCTCAGCTCC) | 0 |
| AGCACCGCATGGACCGGTTTTCCCGGTAATCCGTATTTGGG (site AGCACCGCTCC) | 0.0364 |
| AGCACGACATGGACCGGTTTTCCCGGTAATCCGTATTTGCA (site AGCACGACTTG) | 2.02 |
| AGCACGACATGGACCGGTTTTCCCGGTAATCCGTATTTGCA (site AGGAAGACTTG) | 0 |
| AGCCAAACATGGACCGGTTTTCCCGGTAATCCGTATTTGAA (site AGCCAAACTTT) | 1.32 |

| Sequence | recombinant UMI read abundance (log10) |
| --- | --- |
| AGCCCCTCATGGACCGGTTTTCCCGGTAATCCGTATTTGCA (site AGCCCCTCTTG) | 2.75 |
| AGCCCTCCATGGACCGGTTTTCCCGGTAATCCGTATTTGTT (site AGCCCTCCTAA) | 0.00736 |
| AGCCGAGCATGGACCGGTTTTCCCGGTAATCCGTATTTGTT (site AGCCAAGCTAA) | 0.398 |
| AGCCGAGCATGGACCGGTTTTCCCGGTAATCCGTATTTGTT (site AGCCCAGCTAA) | 0.0229 |
| AGCCGAGCATGGACCGGTTTTCCCGGTAATCCGTATTTGTT (site AGCCGAGCTAA) | 0.837 |
| AGCCGAGCATGGACCGGTTTTCCCGGTAATCCGTATTTGTT (site AGCCTAGCTAA) | 0.00511 |
| AGCCGTTCATGGACCGGTTTTCCCGGTAATCCGTATTTGAC (site AGCCATTCTGT) | 0 |
| AGCCGTTCATGGACCGGTTTTCCCGGTAATCCGTATTTGAC (site AGCCCTTCTGT) | 0 |
| AGCCGTTCATGGACCGGTTTTCCCGGTAATCCGTATTTGAC (site AGCCGTTCTGT) | 1.9 |
| AGCCGTTCATGGACCGGTTTTCCCGGTAATCCGTATTTGAC (site AGCCTTTCTGT) | 0 |
| AGCCTAGCATGGACCGGTTTTCCCGGTAATCCGTATTTGCT (site AGCCTAGCTAA) | 0.0111 |
| AGCCTAGCATGGACCGGTTTTCCCGGTAATCCGTATTTGCT (site AGCCTAGCTAC) | 0.0198 |
| AGCCTAGCATGGACCGGTTTTCCCGGTAATCCGTATTTGCT (site AGCCTAGCTAG) | 0.00934 |
| AGCCTAGCATGGACCGGTTTTCCCGGTAATCCGTATTTGCT (site AGCCTAGCTAT) | 0 |
| AGCCTAGCATGGACCGGTTTTCCCGGTAATCCGTATTTGTG (site AGCCTAGCTAA) | 0.0164 |
| AGCCTAGCATGGACCGGTTTTCCCGGTAATCCGTATTTGTG (site AGCCTAGCTCA) | 0.0603 |
| AGCCTAGCATGGACCGGTTTTCCCGGTAATCCGTATTTGTG (site AGCCTAGCTGA) | 0 |
| AGCCTAGCATGGACCGGTTTTCCCGGTAATCCGTATTTGTG (site AGCCTAGCTTA) | 0.00858 |
| AGCCTATCATGGACCGGTTTTCCCGGTAATCCGTATTTGTT (site AGCCTAACTAA) | 0.0449 |
| AGCCTATCATGGACCGGTTTTCCCGGTAATCCGTATTTGTT (site AGCCTACCTAA) | 0.00813 |
| AGCCTATCATGGACCGGTTTTCCCGGTAATCCGTATTTGTT (site AGCCTAGCTAA) | 0.0191 |
| AGCCTATCATGGACCGGTTTTCCCGGTAATCCGTATTTGTT (site AGCCTATCTAA) | 0 |
| AGCCTCGCATGGACCGGTTTTCCCGGTAATCCGTATTTGTA (site AGCCTCGCTTA) | 0.57 |
| AGCCTCGCATGGACCGGTTTTCCCGGTAATCCGTATTTGTT (site AGCCTAGCTAA) | 0.0107 |
| AGCCTCGCATGGACCGGTTTTCCCGGTAATCCGTATTTGTT (site AGCCTCGCTAA) | 0.0635 |

| Sequence | recombinant UMI read abundance (log10) |
| --- | --- |
| AGCCTCGCATGGACCGGTTTTCCCGGTAATCCGTATTTGTT (site AGCCTGGCTAA) | 0.00929 |
| AGCCTCGCATGGACCGGTTTTCCCGGTAATCCGTATTTGTT (site AGCCTTGCTAA) | 0.0107 |
| AGCCTTGCATGGACCGGTTTTCCCGGTAATCCGTATTTGAC (site AGCCTTACTGT) | 0 |
| AGCCTTGCATGGACCGGTTTTCCCGGTAATCCGTATTTGAC (site AGCCTTCCTGT) | 0 |
| AGCCTTGCATGGACCGGTTTTCCCGGTAATCCGTATTTGAC (site AGCCTTGCTGT) | 1.36 |
| AGCCTTGCATGGACCGGTTTTCCCGGTAATCCGTATTTGAC (site AGCCTTTCTGT) | 0 |
| AGCCTTTCATGGACCGGTTTTCCCGGTAATCCGTATTTGTC (site AGCCTTTCTGA) | 0 |
| AGCCTTTCATGGACCGGTTTTCCCGGTAATCCGTATTTGTC (site AGCCTTTCTGC) | 0 |
| AGCCTTTCATGGACCGGTTTTCCCGGTAATCCGTATTTGTC (site AGCCTTTCTGG) | 0 |
| AGCCTTTCATGGACCGGTTTTCCCGGTAATCCGTATTTGTC (site AGCCTTTCTGT) | 0.00535 |
| AGCGAGTCATGGACCGGTTTTCCCGGTAATCCGTATTTGAT (site AGCGAGTCTAT) | 2.73 |
| AGCTAACCATGGACCGGTTTTCCCGGTAATCCGTATTTGCA (site AGCTAACCTTG) | 0 |
| AGCTAGTCATGGACCGGTTTTCCCGGTAATCCGTATTTGAG (site AGCTAGTCTCT) | 2.57 |
| AGCTATACATGGACCGGTTTTCCCGGTAATCCGTATTTGAC (site AACTATACTGT) | 0.393 |
| AGCTATACATGGACCGGTTTTCCCGGTAATCCGTATTTGAC (site ACCTATACTGT) | 0.726 |
| AGCTATACATGGACCGGTTTTCCCGGTAATCCGTATTTGAC (site AGCTATACTGT) | 2.03 |
| AGCTATACATGGACCGGTTTTCCCGGTAATCCGTATTTGAC (site ATCTATACTGT) | 1.85 |
| AGCTCATCATGGACCGGTTTTCCCGGTAATCCGTATTTGGG (site AGCTCAACTCC) | 0 |
| AGCTCATCATGGACCGGTTTTCCCGGTAATCCGTATTTGGG (site AGCTCACCTCC) | 0.0192 |
| AGCTCATCATGGACCGGTTTTCCCGGTAATCCGTATTTGGG (site AGCTCAGCTCC) | 0.0292 |
| AGCTCATCATGGACCGGTTTTCCCGGTAATCCGTATTTGGG (site AGCTCATCTCC) | 0.833 |
| AGCTCCCCATGGACCGGTTTTCCCGGTAATCCGTATTTGGG (site AGCTCCCCTCC) | 0.111 |
| AGCTGAGCATGGACCGGTTTTCCCGGTAATCCGTATTTGGG (site AGCTAAGCTCC) | 0.0048 |
| AGCTGAGCATGGACCGGTTTTCCCGGTAATCCGTATTTGGG (site AGCTCAGCTCC) | 0 |
| AGCTGAGCATGGACCGGTTTTCCCGGTAATCCGTATTTGGG (site AGCTGAGCTCC) | 0.385 |
